{"source": "ChEMBL document CHEMBL1681712", "about": "“Discovery and biological activity of a novel class I PI3K inhibitor, CH5132799” (Bioorg Med Chem Lett, 2011)", "key": {"[1]": {"biological_target": "Phosphatidylinositol 4,5-bisphosphate 3-kinase catalytic subunit alpha isoform (Homo sapiens, UniProt P42336)", "sequence (P42336 whole entry, canonical isoform)": "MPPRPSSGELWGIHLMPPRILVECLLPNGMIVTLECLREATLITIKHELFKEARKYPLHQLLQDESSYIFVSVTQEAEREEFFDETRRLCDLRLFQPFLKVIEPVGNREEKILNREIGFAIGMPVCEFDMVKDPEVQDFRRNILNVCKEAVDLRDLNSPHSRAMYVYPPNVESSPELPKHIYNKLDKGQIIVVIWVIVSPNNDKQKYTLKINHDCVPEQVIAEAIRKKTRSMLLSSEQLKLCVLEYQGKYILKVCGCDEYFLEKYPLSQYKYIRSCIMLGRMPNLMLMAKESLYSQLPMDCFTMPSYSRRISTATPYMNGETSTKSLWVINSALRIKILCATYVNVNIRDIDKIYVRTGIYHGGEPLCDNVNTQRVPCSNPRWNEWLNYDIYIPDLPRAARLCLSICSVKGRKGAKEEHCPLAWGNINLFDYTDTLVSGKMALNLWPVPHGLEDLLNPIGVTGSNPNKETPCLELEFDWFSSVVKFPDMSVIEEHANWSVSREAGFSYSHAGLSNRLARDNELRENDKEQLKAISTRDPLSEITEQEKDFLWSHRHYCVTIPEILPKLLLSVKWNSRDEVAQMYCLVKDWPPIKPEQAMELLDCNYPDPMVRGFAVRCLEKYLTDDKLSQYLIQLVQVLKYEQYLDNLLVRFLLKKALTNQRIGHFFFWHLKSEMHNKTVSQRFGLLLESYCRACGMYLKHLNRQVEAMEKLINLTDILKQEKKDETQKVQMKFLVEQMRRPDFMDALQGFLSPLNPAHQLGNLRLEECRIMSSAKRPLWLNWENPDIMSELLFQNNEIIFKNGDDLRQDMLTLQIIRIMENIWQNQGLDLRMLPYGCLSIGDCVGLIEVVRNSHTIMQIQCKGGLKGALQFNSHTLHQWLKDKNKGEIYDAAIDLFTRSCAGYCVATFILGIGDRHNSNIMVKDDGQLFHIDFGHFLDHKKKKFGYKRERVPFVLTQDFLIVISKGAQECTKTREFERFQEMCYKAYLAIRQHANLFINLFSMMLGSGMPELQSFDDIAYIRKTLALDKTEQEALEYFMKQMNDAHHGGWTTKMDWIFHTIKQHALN", "experiment": "Inhibition of PI3Kalpha"}, "[2]": {"experiment": "Antiproliferative activity against human KPL4 cells", "type": "functional, cell-based"}, "[3]": {"experiment": "Half life in human liver microsomes assessed as glucuronidation", "type": "ADME, Microsome"}, "[4]": {"experiment": "Half life in human liver microsomes", "type": "ADME, Microsome"}, "[5]": {"experiment": "Oral bioavailability in mouse", "type": "ADME, organism-based", "details": "in vivo"}, "PC-3 [6]": {"tested_on": "PC-3", "experiment": "In vivo antitumor activity against human PC3 cells in xenograft model assessed as inhibition of tumor growth at 100 mg/kg, po qd for 11 days relative to control", "type": "functional", "details": "PC-3, 264 h"}, "PC-3 [7]": {"tested_on": "PC-3", "experiment": "In vivo antitumor activity against human PC3 cells in xenograft model assessed as inhibition of tumor growth at 25 mg/kg, po qd for 11 days relative to control", "type": "functional", "details": "PC-3, 264 h"}, "[8]": {"biological_target": "Phosphatidylinositol 4-phosphate 3-kinase C2 domain-containing subunit alpha (Homo sapiens, UniProt O00443)", "sequence (O00443 whole entry, the tested form may be a part)": "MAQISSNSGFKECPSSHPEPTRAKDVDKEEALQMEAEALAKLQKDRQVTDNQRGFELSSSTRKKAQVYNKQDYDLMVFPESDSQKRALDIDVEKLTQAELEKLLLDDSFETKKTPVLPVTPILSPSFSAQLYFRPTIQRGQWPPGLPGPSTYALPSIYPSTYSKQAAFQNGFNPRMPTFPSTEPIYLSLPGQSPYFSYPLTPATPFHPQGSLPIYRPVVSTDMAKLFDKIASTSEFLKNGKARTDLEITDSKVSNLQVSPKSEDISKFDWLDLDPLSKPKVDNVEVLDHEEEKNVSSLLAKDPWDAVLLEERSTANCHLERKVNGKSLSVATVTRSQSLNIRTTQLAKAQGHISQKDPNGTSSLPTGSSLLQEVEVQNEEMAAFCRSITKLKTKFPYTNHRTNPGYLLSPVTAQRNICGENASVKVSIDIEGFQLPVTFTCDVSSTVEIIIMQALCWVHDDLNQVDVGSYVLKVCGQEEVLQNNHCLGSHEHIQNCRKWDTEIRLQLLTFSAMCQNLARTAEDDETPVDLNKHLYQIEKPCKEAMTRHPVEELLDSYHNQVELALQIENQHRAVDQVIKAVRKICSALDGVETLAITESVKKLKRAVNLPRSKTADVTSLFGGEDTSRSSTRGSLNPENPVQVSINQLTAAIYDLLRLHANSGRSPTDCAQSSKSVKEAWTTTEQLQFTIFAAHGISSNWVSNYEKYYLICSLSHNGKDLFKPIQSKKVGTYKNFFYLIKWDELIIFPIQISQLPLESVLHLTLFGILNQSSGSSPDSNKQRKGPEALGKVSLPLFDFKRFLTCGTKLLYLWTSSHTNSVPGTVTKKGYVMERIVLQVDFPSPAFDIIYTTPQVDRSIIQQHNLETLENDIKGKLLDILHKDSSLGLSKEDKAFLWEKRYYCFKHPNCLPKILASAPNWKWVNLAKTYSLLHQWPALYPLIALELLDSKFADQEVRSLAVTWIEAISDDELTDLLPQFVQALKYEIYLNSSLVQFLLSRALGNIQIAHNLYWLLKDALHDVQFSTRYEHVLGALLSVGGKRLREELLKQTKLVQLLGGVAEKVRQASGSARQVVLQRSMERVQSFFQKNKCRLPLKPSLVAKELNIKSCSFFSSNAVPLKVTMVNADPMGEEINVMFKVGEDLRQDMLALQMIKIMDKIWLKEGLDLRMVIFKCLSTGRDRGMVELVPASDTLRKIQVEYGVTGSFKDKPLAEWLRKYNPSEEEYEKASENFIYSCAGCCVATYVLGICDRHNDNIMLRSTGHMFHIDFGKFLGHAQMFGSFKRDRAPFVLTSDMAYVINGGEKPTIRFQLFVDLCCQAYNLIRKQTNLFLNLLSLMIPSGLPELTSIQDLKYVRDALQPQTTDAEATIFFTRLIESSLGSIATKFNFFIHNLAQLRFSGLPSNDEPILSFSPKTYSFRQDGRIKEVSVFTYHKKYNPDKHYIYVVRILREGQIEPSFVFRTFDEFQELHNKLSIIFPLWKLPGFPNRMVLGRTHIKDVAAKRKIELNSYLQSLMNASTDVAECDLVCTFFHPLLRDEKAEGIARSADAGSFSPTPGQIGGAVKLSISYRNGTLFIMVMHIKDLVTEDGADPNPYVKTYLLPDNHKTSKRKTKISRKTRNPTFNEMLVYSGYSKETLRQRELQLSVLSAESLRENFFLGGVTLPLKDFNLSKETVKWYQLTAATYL", "experiment": "Inhibition of PI3KC2alpha"}, "[9]": {"biological_target": "Phosphatidylinositol 4-phosphate 3-kinase C2 domain-containing subunit beta (Homo sapiens, UniProt O00750)", "sequence (O00750 whole entry, the tested form may be a part)": "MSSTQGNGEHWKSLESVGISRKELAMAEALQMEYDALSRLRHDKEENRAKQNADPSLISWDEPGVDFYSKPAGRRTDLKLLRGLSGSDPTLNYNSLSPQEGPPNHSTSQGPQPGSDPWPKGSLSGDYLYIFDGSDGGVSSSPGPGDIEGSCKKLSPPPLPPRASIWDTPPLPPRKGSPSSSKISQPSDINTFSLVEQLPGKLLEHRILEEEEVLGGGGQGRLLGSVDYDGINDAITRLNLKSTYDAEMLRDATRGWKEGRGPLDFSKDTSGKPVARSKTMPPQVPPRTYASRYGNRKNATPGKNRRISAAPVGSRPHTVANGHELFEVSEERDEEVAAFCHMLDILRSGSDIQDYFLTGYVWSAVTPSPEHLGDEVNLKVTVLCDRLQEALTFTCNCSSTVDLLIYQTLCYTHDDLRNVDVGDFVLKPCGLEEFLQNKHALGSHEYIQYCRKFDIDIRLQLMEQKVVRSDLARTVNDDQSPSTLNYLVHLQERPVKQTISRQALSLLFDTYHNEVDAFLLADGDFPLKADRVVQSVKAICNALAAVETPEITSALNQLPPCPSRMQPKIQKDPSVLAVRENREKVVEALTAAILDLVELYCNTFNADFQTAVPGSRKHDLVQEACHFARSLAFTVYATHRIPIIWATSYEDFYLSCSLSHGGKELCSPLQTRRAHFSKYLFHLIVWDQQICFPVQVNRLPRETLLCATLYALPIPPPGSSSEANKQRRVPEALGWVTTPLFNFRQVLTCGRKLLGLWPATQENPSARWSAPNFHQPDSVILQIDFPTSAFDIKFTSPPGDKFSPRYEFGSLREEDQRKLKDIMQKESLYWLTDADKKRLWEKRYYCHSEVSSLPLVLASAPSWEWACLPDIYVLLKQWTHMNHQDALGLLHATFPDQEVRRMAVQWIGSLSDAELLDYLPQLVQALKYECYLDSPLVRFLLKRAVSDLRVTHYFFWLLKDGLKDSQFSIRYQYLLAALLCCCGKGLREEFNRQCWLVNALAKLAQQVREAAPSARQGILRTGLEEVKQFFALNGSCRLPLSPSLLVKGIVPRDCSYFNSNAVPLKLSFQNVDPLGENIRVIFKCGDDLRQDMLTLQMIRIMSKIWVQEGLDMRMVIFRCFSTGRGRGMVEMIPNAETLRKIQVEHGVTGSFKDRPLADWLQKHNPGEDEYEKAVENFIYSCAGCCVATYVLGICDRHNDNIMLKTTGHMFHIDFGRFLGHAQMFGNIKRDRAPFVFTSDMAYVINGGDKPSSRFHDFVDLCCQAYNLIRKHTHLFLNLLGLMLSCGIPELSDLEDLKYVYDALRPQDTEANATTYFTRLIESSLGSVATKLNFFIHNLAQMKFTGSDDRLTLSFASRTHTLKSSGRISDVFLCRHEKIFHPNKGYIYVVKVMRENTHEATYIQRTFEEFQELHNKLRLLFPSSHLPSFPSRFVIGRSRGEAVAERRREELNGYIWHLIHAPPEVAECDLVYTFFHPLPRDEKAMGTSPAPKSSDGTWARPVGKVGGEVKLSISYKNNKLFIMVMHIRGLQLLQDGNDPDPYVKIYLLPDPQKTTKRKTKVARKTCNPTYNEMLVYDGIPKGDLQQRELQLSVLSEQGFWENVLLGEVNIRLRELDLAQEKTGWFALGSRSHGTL", "experiment": "Inhibition of PI3KC2beta"}, "[10]": {"biological_target": "Phosphatidylinositol 3-kinase catalytic subunit type 3 (Homo sapiens, UniProt Q8NEB9)", "experiment": "Inhibition of Vps34"}, "[11]": {"biological_target": "Serine/threonine-protein kinase mTOR (Homo sapiens, UniProt P42345)", "experiment": "Inhibition of mTOR"}, "[12]": {"experiment": "Inhibition of protein kinase"}, "KPL4 [13]": {"tested_on": "KPL4", "experiment": "Antitumor activity against human KPL4 cells expressing PI3Kalpha H1047R mutant xenografted in mouse assessed as tumor regression at 12.5 mg/kg, po for 6 weeks", "type": "functional, organism-based", "set-up": "dose 12.5 mg/kg"}, "KPL4 [14]": {"tested_on": "KPL4", "experiment": "Antitumor activity against human KPL4 cells expressing PI3Kalpha H1047R mutant xenografted in mouse assessed as tumor regression at 12.5 mg/kg, po administered intermittent dosing schedule qd for 2 weeks on/1 week off", "type": "functional, organism-based", "set-up": "dose 12.5 mg/kg"}, "KPL4 [15]": {"tested_on": "KPL4", "experiment": "Antitumor activity against human KPL4 cells expressing PI3Kalpha H1047R mutant xenografted in mouse assessed as tumor regression at 12.5 mg/kg, po administered intermittent dosing schedule 5 days on/2 days off", "type": "functional, organism-based", "set-up": "dose 12.5 mg/kg"}, "[16]": {"experiment": "Half life in mouse at 2 mg/kg, iv", "type": "ADME, organism-based", "set-up": "dose 2 mg/kg, route intravenous", "details": "in vivo"}, "[17]": {"experiment": "Clearance in mouse at 2 mg/kg, iv", "type": "ADME, organism-based", "set-up": "dose 2 mg/kg, route intravenous", "details": "in vivo"}, "[18]": {"experiment": "AUC (infinity) in mouse at 2 mg/kg, iv", "type": "ADME, organism-based", "set-up": "time infinity, dose 2 mg/kg, route intravenous", "details": "plasma"}, "[19]": {"experiment": "Half life in mouse at 1 mg/kg, po", "type": "ADME, organism-based", "set-up": "dose 1 mg/kg, route oral", "details": "in vivo"}, "[20]": {"experiment": "Tmax in mouse at 1 mg/kg, po", "type": "ADME, organism-based", "set-up": "dose 1 mg/kg, route oral", "details": "in vivo"}, "[21]": {"experiment": "AUC (infinity) in mouse at 1 mg/kg, po", "type": "ADME, organism-based", "set-up": "time infinity, dose 1 mg/kg, route oral", "details": "plasma"}, "[22]": {"experiment": "Oral bioavailability in mouse at 1 mg/kg", "type": "ADME, organism-based", "details": "in vivo"}, "[23]": {"experiment": "Half life in rat at 0.5 mg/kg, iv", "type": "ADME, organism-based", "set-up": "dose 0.5 mg/kg, route intravenous", "details": "in vivo"}, "[24]": {"experiment": "Clearance in rat at 0.5 mg/kg, iv", "type": "ADME, organism-based", "set-up": "dose 0.5 mg/kg, route intravenous", "details": "in vivo"}, "[25]": {"experiment": "AUC (infinity) in rat at 0.5 mg/kg, iv", "type": "ADME, organism-based", "set-up": "dose 0.5 mg/kg, route intravenous, time infinity", "details": "plasma"}, "[26]": {"experiment": "Half life in rat at 1 mg/kg, po", "type": "ADME, organism-based", "set-up": "dose 1 mg/kg, route oral", "details": "in vivo"}, "[27]": {"experiment": "Tmax in rat at 1 mg/kg, po", "type": "ADME, organism-based", "set-up": "dose 1 mg/kg, route oral", "details": "in vivo"}, "[28]": {"experiment": "AUC (infinity) in rat at 1 mg/kg, po", "type": "ADME, organism-based", "set-up": "time infinity, dose 1 mg/kg, route oral", "details": "plasma"}, "[29]": {"experiment": "Oral bioavailability in rat at 1 mg/kg", "type": "ADME, organism-based", "details": "in vivo"}, "[30]": {"experiment": "Half life in dog at 0.25 mg/kg, iv", "type": "ADME, organism-based, Canis lupus familiaris", "set-up": "dose 0.25 mg/kg, route intravenous", "details": "in vivo"}, "[31]": {"experiment": "Clearance in dog at 0.25 mg/kg, iv", "type": "ADME, organism-based, Canis lupus familiaris", "set-up": "dose 0.25 mg/kg, route intravenous", "details": "in vivo"}, "[32]": {"experiment": "AUC (infinity) in dog at 0.25 mg/kg, iv", "type": "ADME, organism-based, Canis lupus familiaris", "set-up": "time infinity, dose 0.25 mg/kg, route intravenous", "details": "plasma"}, "[33]": {"experiment": "Half life in dog at 1 mg/kg, po", "type": "ADME, organism-based, Canis lupus familiaris", "set-up": "dose 1 mg/kg, route oral", "details": "in vivo"}, "[34]": {"experiment": "Tmax in dog at 1 mg/kg, po", "type": "ADME, organism-based, Canis lupus familiaris", "set-up": "dose 1 mg/kg, route oral", "details": "in vivo"}, "[35]": {"experiment": "AUC (infinity) in dog at 1 mg/kg, po", "type": "ADME, organism-based, Canis lupus familiaris", "set-up": "time infinity, dose 1 mg/kg, route oral", "details": "plasma"}, "[36]": {"experiment": "Oral bioavailability in dog at 1 mg/kg", "type": "ADME, organism-based, Canis lupus familiaris", "details": "in vivo"}, "[37]": {"experiment": "Half life in monkey at 0.25 mg/kg, iv", "type": "ADME, organism-based, Macaca mulatta", "set-up": "dose 0.25 mg/kg, route intravenous", "details": "rhesus monkey, in vivo"}, "[38]": {"experiment": "Clearance in monkey at 0.25 mg/kg, iv", "type": "ADME, organism-based, Macaca mulatta", "set-up": "dose 0.25 mg/kg, route intravenous", "details": "rhesus monkey, in vivo"}, "[39]": {"experiment": "Half life in monkey at 1 mg/kg, po", "type": "ADME, organism-based, Macaca mulatta", "set-up": "dose 1 mg/kg, route oral", "details": "rhesus monkey, in vivo"}, "[40]": {"experiment": "Tmax in monkey at 1 mg/kg, po", "type": "ADME, organism-based, Macaca mulatta", "set-up": "dose 1 mg/kg, route oral", "details": "rhesus monkey, in vivo"}, "[41]": {"experiment": "AUC (infinity) in monkey at 1 mg/kg, po", "type": "ADME, organism-based, Macaca mulatta", "set-up": "time infinity, dose 1 mg/kg, route oral", "details": "rhesus monkey, plasma"}, "[42]": {"experiment": "Oral bioavailability in monkey at 1 mg/kg", "type": "ADME, organism-based, Macaca mulatta", "details": "rhesus monkey, in vivo"}}, "note": "The source made the active and inactive calls. The rule behind the calls is not given here.", "data": [{"smiles": "Nc1ncc(-c2nc(N3CCOCC3)nc3c2CCN3c2cccnc2)cn1", "values": [{"measurement": "IC50", "setting": "[1]", "result": 33, "unit": "nM"}, {"measurement": "IC50", "setting": "[2]", "result": 15, "unit": "nM"}, {"measurement": "half-life", "setting": "[3]", "result": "> 60", "unit": "min"}, {"measurement": "half-life", "setting": "[4]", "result": 71, "unit": "min"}, {"measurement": "bioavailability", "setting": "[5]", "result": 41, "unit": "%"}, {"measurement": "inhibition in vivo at 100 mg/kg", "setting": "PC-3 [6]", "result": 112, "unit": "%"}]}, {"smiles": "CS(=O)(=O)N1CCc2c(-c3cnc(N)nc3)nc(N3CCOCC3)nc21", "note": "[IZORLISIB]", "values": [{"measurement": "half-life", "setting": "[4]", "result": "> 360", "unit": "min"}, {"measurement": "bioavailability", "setting": "[5]", "result": 101, "unit": "%"}, {"measurement": "inhibition in vivo at 25 mg/kg", "setting": "PC-3 [7]", "result": 101, "unit": "%"}, {"measurement": "IC50", "setting": "[8]", "result": "> 10", "unit": "µM"}, {"measurement": "IC50", "setting": "[9]", "result": 5.3, "unit": "µM"}, {"measurement": "IC50", "setting": "[10]", "result": "> 10", "unit": "µM"}, {"measurement": "IC50", "setting": "[11]", "result": 1600, "unit": "nM"}, {"measurement": "IC50", "setting": "[12]", "result": "> 10", "unit": "µM"}, {"measurement": "Activity", "setting": "KPL4 [13]", "result": "Active"}, {"measurement": "Activity", "setting": "KPL4 [14]", "result": "Active"}, {"measurement": "Activity", "setting": "KPL4 [15]", "result": "Active"}, {"measurement": "half-life", "setting": "[16]", "result": 102, "unit": "min"}, {"measurement": "clearance", "setting": "[17]", "result": 17.5, "unit": "mL/min/kg"}, {"measurement": "AUC(0-inf)", "setting": "[18]", "result": 1930, "unit": "ng·h/mL"}, {"measurement": "half-life", "setting": "[19]", "result": 228, "unit": "min"}, {"measurement": "Tmax", "setting": "[20]", "result": 15, "unit": "min"}, {"measurement": "AUC(0-inf)", "setting": "[21]", "result": 978, "unit": "ng·h/mL"}, {"measurement": "bioavailability", "setting": "[22]", "result": 101, "unit": "%"}, {"measurement": "half-life", "setting": "[23]", "result": 156, "unit": "min"}, {"measurement": "clearance", "setting": "[24]", "result": 6.3, "unit": "mL/min/kg"}, {"measurement": "AUC(0-inf)", "setting": "[25]", "result": 1350, "unit": "ng·h/mL"}, {"measurement": "half-life", "setting": "[26]", "result": 210, "unit": "min"}, {"measurement": "Tmax", "setting": "[27]", "result": 48, "unit": "min"}, {"measurement": "AUC(0-inf)", "setting": "[28]", "result": 1790, "unit": "ng·h/mL"}, {"measurement": "bioavailability", "setting": "[29]", "result": 66.2, "unit": "%"}, {"measurement": "half-life", "setting": "[30]", "result": 96, "unit": "min"}, {"measurement": "clearance", "setting": "[31]", "result": 6.4, "unit": "mL/min/kg"}, {"measurement": "AUC(0-inf)", "setting": "[32]", "result": 660, "unit": "ng·h/mL"}, {"measurement": "half-life", "setting": "[33]", "result": 198, "unit": "min"}, {"measurement": "Tmax", "setting": "[34]", "result": 4.5, "unit": "h"}, {"measurement": "AUC(0-inf)", "setting": "[35]", "result": 1430, "unit": "ng·h/mL"}, {"measurement": "bioavailability", "setting": "[36]", "result": 54.2, "unit": "%"}, {"measurement": "half-life", "setting": "[37]", "result": 192, "unit": "min"}, {"measurement": "clearance", "setting": "[38]", "result": 6.2, "unit": "mL/min/kg"}, {"measurement": "half-life", "setting": "[39]", "result": 402, "unit": "min"}, {"measurement": "Tmax", "setting": "[40]", "result": 4, "unit": "h"}, {"measurement": "AUC(0-inf)", "setting": "[41]", "result": 2170, "unit": "ng·h/mL"}, {"measurement": "bioavailability", "setting": "[42]", "result": 78.4, "unit": "%"}]}, {"smiles": "Oc1cccc(-c2nc(N3CCOCC3)nc3c2CCN3c2ccncc2)c1", "values": [{"measurement": "IC50", "setting": "[1]", "result": 8.6, "unit": "nM"}, {"measurement": "IC50", "setting": "[2]", "result": 450, "unit": "nM"}, {"measurement": "half-life", "setting": "[3]", "result": 11, "unit": "min"}, {"measurement": "half-life", "setting": "[4]", "result": 21, "unit": "min"}, {"measurement": "bioavailability", "setting": "[5]", "result": 1.6, "unit": "%"}]}, {"smiles": "Oc1cccc(-c2nc(N3CCOCC3)nc3c2CCN3c2cccnc2)c1", "values": [{"measurement": "IC50", "setting": "[1]", "result": 41, "unit": "nM"}]}, {"smiles": "Oc1cccc(-c2nc(N3CCOCC3)nc3c2CCN3c2ccc3nc[nH]c3c2)c1", "values": [{"measurement": "IC50", "setting": "[1]", "result": 77, "unit": "nM"}]}]}
